We go through five compounds from publication PMC11727334, “A self-immolative Kdn-glycoside substrate enables high-throughput screening for inhibitors of Kdnases” (Glycobiology, 2024).

Like-named read-outs stand apart in the source and are kept apart here.

The conditions of series [1]: no reference given; cited from earlier work.
The target in series [2] is T1, AfK (Aspergillus fumigatus, UniProt Q4WQS0).
T1 construct: AfK was expressed and purified as described by Telford et al; made in house
Particulars: Table S1; ref Telford et al., J Biol Chem, 2011, 10783; cited from earlier work.

Series [3] deals with T1, AfK. As to the kind of experiment: Differential scanning fluorimetry (DSF) thermal shift assay, AfK. Format: binding. The text has this:
(§1) We next used a separate biophysical technique, differential scanning fluorimetry (DSF), to confirm that these compound bind to the various Kdnases. Specifically, we measured protein melting temperatures in the presence of Kdn2en (2) and candidate ligands 13 and 17 (Fig. 3D). […] We repeated this DSF assay on AtK and TrK and we observed similar trends in thermal shifts (Fig. S14 and Tables S2,S3 and S4, Supporting Information). […] Accordingly, further follow up on this compound would need to be pursued with an awareness of this possibility.
(§2) Table S3. Differential scanning fluorometry-based (DSF) assay for inhibitors 2, 13, and 17 binding to Af, At, Tr and MvNA. Protein thermal shifts(ΔTm) using DMSO (2.5%), and inhibitors 2, 13, and 17 at 500 µM against the Kdnase of Af, At, Tr and MvNA. Assay done using 5–10 µM enzyme and 100 mM pH 4.0 NaOAc (pH 5.5 MvNA). A temperature range of 25°C to 95°C was used with a gradient of 0.05°C/sec. […]
(§3) Table S4. Thermal shifts (ΔTm) for stabilization of AfK, AtK, TrK and MvNA on inhibitor binding relative to the DMSO (2.5%) control. […]
(Differential scanning fluorimetry follows unfolding on heating by fluorescence.)

The next series has as its target MvNA (Micromonospora viridifaciens, UniProt Q02834). As to the kind of experiment: Differential scanning fluorimetry (DSF) thermal shift assay, MvNA. Particulars: inhibitor 500 µM. It is filed as binding. Here is the method: as §2, §3
The test system of another series is AtK. As to the kind of experiment: Differential scanning fluorimetry (DSF) thermal shift assay, AtK. It is filed as binding, Aspergillus terreus. Particulars: inhibitor 500 µM.
Excerpt: as §1, §2, §3

For another series, the system named is TrK. As to the kind of experiment: Differential scanning fluorimetry (DSF) thermal shift assay, TrK. It is filed as binding, Trichophyton rubrum. Particulars: inhibitor 500 µM.
Excerpt: as §1, §2, §3

Series [4] deals with T2, Kdnase produced by A. fumigatus (AfK) (Aspergillus fumigatus, UniProt Q4WQS0).
T2 construct: AfK was expressed and purified as described by Telford et al; made in house
Also on record: method as in Telford et al. (3). Particulars: Table S2; ref Telford et al. (3); cited from earlier work.

Series [5] deals with T1, AfK. As to the kind of experiment: Kdnase activity assay: Michaelis-Menten parameters for AfK-catalyzed hydrolysis of substrates. It is filed as biochemical. Particulars: 100 mM NaOAc pH 4, 0.01% BSA, 21 °C. The text has this:
Next, we measured the Michaelis–Menten parameters for AfK-catalyzed hydrolysis of 4 so as to guide assay optimization for the downstream HTS. Specifically, we added stop solution to the AfK-catalyzed reaction at various times and then, after cyclization we measured the fluorescence, which we converted to product concentration using a standard calibration curve (Figs S3–S5, Supporting Information). As expected, our alkyl Kdn glycoside undergoes enzyme-catalyzed hydrolysis with lower rate constants than those for the activated Kdn glycoside 4MU-Kdn. Specifically, the second-order rate constant (kcat/Km) for the AfK-catalyzed hydrolysis of 4 is (4.0 ± 0.8) × 10^3 M^−1 s^−1, while that for 4MU-Kdn (1) is (1.8 ± 0.1) × 10^5 M^−1 s^−1 ([Yeung et al. 2013]) (Table S1, Supporting Information).
The activity of AfK was determined by measuring cleavage of the synthetic Kdnase substrate Kdn-SICL-4MU 4 (Fig. 1). Substrate 4 was incubated at rt for 10 min followed by the addition purified recombinant enzyme. A stop solution containing 100 mM K2CO3 pH ≈ 12 was added at a series of time points starting from 5, 10, 15, 30, 45, 60, 120, 180 min. […] The substrate concentration used ranged of 2–2,000 μM and the amount of 4-methylumbelliferone (4MU) released from 4 was determined using a fluorescence spectrophotometer (BioTek Neo 2) at excitation and emission wavelengths of 360 and 450 nm, respectively. […]

Series [6] in a line: Base promoted cyclization of liberated aglycon after carbonate stop solution. Particulars: after addition of carbonate stop solution, pH ≈ 10. It is filed as physicochemical. Here is the method:
With Kdn glycoside 4 in hand, we began assay development. […] We reasoned that hydroxyl group activation is required for cyclization. We therefore allowed the enzymatic reaction to proceed for 5 min and then raised the pH of the solution to a pH of ≈ 10 by addition of a solution of K2CO3 (Fig. 1D). We opted for this raised pH value because it would both facilitate cyclization releasing the 4MU reporter and also terminate the enzyme-catalyzed substrate hydrolysis. Using this approach, we observed a significant increase in fluorescence attributable to AfK-catalyzed hydrolysis of substrate 4. […] That is, in the absence of Kdnase, no hydroxycarbamate aglycon 6 is formed. […] Thus, >98% of the fluorescence signal is produced within 15 min following addition of the basic buffer (Fig. S2, supporting information).

Setting [7] is: 100 mM pH 4.0 NaOAc, 5–10 µM enzyme.

T1 sequence (Q4WQS0 21-406): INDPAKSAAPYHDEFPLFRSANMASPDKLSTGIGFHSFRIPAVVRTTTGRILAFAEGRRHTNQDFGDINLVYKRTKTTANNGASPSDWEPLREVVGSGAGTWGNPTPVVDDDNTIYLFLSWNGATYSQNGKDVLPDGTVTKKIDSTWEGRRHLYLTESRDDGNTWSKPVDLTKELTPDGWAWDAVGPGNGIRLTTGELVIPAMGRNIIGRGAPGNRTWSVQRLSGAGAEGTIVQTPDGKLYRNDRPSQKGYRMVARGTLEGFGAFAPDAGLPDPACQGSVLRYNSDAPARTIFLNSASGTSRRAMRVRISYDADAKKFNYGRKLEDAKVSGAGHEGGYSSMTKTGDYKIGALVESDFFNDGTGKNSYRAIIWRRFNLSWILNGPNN
T2 sequence (Q4WQS0 21-406): as above
Chain of MvNA (Q02834 38-647): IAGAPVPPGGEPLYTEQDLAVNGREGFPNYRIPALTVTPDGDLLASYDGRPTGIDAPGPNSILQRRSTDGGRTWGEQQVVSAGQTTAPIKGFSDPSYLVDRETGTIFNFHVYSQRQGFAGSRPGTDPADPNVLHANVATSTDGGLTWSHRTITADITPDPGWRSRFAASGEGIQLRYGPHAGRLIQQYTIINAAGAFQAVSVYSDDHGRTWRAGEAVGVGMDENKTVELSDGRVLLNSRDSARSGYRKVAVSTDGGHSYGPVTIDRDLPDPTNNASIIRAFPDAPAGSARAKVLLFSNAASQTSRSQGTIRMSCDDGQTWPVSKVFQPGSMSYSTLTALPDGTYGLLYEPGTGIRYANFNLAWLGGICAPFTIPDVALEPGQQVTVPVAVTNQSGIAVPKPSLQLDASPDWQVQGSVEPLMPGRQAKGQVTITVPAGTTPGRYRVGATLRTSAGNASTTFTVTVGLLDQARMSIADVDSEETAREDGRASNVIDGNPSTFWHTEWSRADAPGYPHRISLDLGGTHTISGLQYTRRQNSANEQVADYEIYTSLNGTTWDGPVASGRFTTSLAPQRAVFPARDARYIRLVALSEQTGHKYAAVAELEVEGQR

For the compound `Cc1cc(=O)oc2cc(O)ccc12` [4MU, 4-methylumbelliferone], the pKa in [1] is recorded as 8.4.

For the compound `Cc1cc(=O)oc2cc(O[C@]3(C(=O)O)C[C@H](O)[C@@H](O)[C@H]([C@H](O)[C@H](O)CO)O3)ccc12` [compound 1, 4-methylumbelliferyl 3-deoxy-D-glycero-D-galacto-non-2-ulopyranosidonic acid], at AfK [2], the Km is 230 ± 20 µM and the kcat is 41 ± 4 s–1.

Take `O=C(O)C1=C[C@H](O)[C@@H](O)[C@H]([C@H](O)[C@H](O)CO)O1` [compound 2, Kdn2en, reference compound]: the “effect on thermal stability of the folded enzyme (DSF, in words)” value at AfK [3] (AfK) is “positive unfolding temperature shifts”. In addition, the “protein melting temperature (DSF, Table S3)” value on AfK [3] (inhibitor 500 µM, 100 mM pH 4.0 NaOAc, 5–10 µM enzyme) came out at 53.2 ± 0.1 °C; on MvNA (pH 5.5, 5–10 µM enzyme) it was 54.4 ± 0.1 °C; in the series with AtK (setting [7]), 55.3 ± 0.1 °C; with TrK (setting [7]), 49.7 ± 0.2 °C. The ΔTm at 500 µM on AfK [3] (read-out: Thermal shift (ΔTm) relative to DMSO (2.5%) control) stood at 1.7 °C; at MvNA (Table S4, read-out: Thermal shift (ΔTm) relative to DMSO (2.5%) control), 0.5 °C. In addition, the “Thermal shift (ΔTm) relative to DMSO (2.5%) control” value is “+3.4 ± 0.1 °C” with AtK (Table S4) and “+15.0 ± 0.2 °C” in the series with TrK (Table S4). Further, the IC50 in series [4] is 556 µM. In addition, in series [4], the Ki was 102 µM.

Consider `Cc1cc(=O)oc2cc(OC(=O)N(C)CCO[C@]3(C(=O)O)C[C@H](O)[C@@H](O)[C@H]([C@H](O)[C@H](O)CO)O3)ccc12` [compound 4, N-methyl-(N-4′-methylumbelliferylcarbonyl)-2-aminoethyl 3-deoxy-D-glycero-α-D-galacto-non-2-ulopyranosidonic acid], for which, on AfK [5], the Km worked out at 950 µM and the kcat amounted to 3.7 ± 0.2 s–1.

For the compound `Cc1cc(=O)oc2cc(OC(=O)N(C)CCO)ccc12` [compound 6], in series [6], the “half-life (t1/2) of first-order cyclization” value is recorded as “approximately 2.5 min”.

As a reminder, the pKa is the pH at which an ionisable group is half protonated. Usually Km stands for the substrate concentration at which the rate is half of its maximum. The IC50 is the concentration needed to halve the response being measured. In general, Ki refers to a measure of affinity in units of concentration, obtained from inhibition or displacement.
